According to patent US7544707B2, “Bicyclic derivatives as PPAR modulators” (Eli Lilly and Company, priority 2003, dated 2009):

First: O=C(O)Cc1csc2cc(SCc3cccc4cn(-c5ccc(C(F)(F)F)cc5)nc34)ccc12 [Example 5, 6-[2-(4-Trifluoromethylphenyl)-2H-indazol-7-ylmethylsulfanyl]benzo[b]thiophen-3-ylacetic Acid]
Second: O=C(O)Cc1csc2cc(SCc3cccc4nn(-c5ccc(C(F)(F)F)cc5)cc34)ccc12 [Example 29, 6-[2-(4-Trifluoromethylphenyl)-2H-indazol-4-ylmethylsulfanyl]benzo[b]thiophen-3-ylacetic Acid]
The melting point of the first is lower: 141 to 143 °C for the first, 183 to 185 °C for the second.

Compared with CCc1cc(SCc2cccc3c2cnn3-c2ccc(C(F)(F)F)cc2)ccc1OCC(=O)O [Example 31, 2-Ethyl-4-[1-(4-trifluoromethylphenyl)-1H-indazol-4-ylmethylsulfanyl]phenoxyacetic Acid], CCc1cc(SCc2cccc3nn(-c4ccc(C(F)(F)F)cc4)cc23)ccc1OCC(=O)O [Example 27, 2-Ethyl-4-[2-(4-trifluoromethylphenyl)-2H-indazol-4-ylmethylsufanyl]phenoxyacetic Acid] is lower in melting point: 122 to 124 °C for the first, 65 to 70 °C for the second.

First: CCc1cc(OCc2cccc3cn(-c4ccc(C(F)(F)F)cc4)nc23)ccc1CCC(=O)O [Example 7, 3-{2-Ethyl-4-[2-(4-trifluoromethylphenyl)-2H-indazol-7-ylmethoxy]phenol}propionic Acid]
Second: CCc1cc(OC(C)c2cccc3cn(-c4ccc(C(F)(F)F)cc4)nc23)ccc1CCC(=O)O (racemic) [Example 13]
The melting point of the first is higher: 157 to 159 °C for the first, 61 to 63 °C for the second.

First: CC(C)(Sc1ccc(OCc2cccc3cnn(-c4ccc(C(F)(F)F)cc4)c23)cc1)C(=O)O [Example 97, 2-Methyl-2-{4-[1-(4-trifluoromethylphenyl)-1H-indazol-7-ylmethoxy]phenylsulfanyl}propionic Acid]
Second: CC(C)(Oc1ccc(OCc2cccc3cnn(-c4ccc(C(F)(F)F)cc4)c23)cc1)C(=O)O [Example 100, 2-Methyl-1-2-{4-[1-(4-trifluoromethylphenyl)-1H-indazol-7-ylmethoxy]phenoxy}propionic Acid]
The melting point of the first is higher: 214 to 216 °C for the first, 146 to 149 °C for the second.

Compared with CC(C)(Oc1ccc(OC(CCC(F)(F)F)c2cccc3c2cnn3-c2ccc(C(F)(F)F)cc2)cc1)C(=O)O (racemic) [Example 90, (+/−)-2-Methyl-2-(4-{4,4,4-trifluoro-1-[1-(4-trifluoromethylphenyl)-1H-indazol-4-yl]butoxy}phenoxy)propionic Acid], CC(Oc1ccc(OC(C)(C)C(=O)O)cc1)c1cccc2c1cnn2-c1ccc(C(F)(F)F)cc1 (racemic) [Example 85, (+/−)-2-Methyl-2-(4-{1-[1-(4-trifluoromethylphenyl)-1H-indazol-4-yl]ethoxy}phenoxy)propionic Acid] is lower in melting point: 175 to 180 °C for the first, 99 to 102 °C for the second.

First: Cc1cc(SC(C)c2ccc3cn(-c4ccc(C(F)(F)F)cc4)nc3c2)ccc1OC(C)(C)C(=O)O (racemic) [Example 60, (+/−)-2-Methyl-2-(2-methyl-4-{1-[2-(4-trifluoromethylphenyl)-2H-indazol-6-yl]ethylsulfanyl}phenoxy)propionic Acid]
Second: Cc1cc(SC(C)c2cccc3nn(-c4ccc(C(F)(F)F)cc4)cc23)ccc1OC(C)(C)C(=O)O (racemic) [Example 72, (+/−)-2-Methyl-2-(2-methyl-4-{1-[2-(4-trifluoromethylphenyl)-2H-indazol-4-yl]ethylsulfanyl}phenoxy)propionic Acid]
The melting point of the first is lower: 114 to 116 °C for the first, 153 to 155 °C for the second.

Compared with CC(C)(Oc1ccc(OCc2ccc3cn(-c4ccc(C(F)(F)F)cc4)nc3c2)cc1)C(=O)O [Example 52, 2-Methyl-2-{4-[2-(4-trifluoromethylphenyl)-2H-indazol-6-ylmethoxy]phenoxy}propionic Acid], CC(C)(Oc1ccc(OCc2cccc3cn(-c4ccc(C(F)(F)F)cc4)nc23)cc1)C(=O)O [Example 39, 2-Methyl-2-{4-[2-(4-trifluoromethylphenyl)-2H-indazol-7-ylmethoxy]phenoxy}propionic Acid] is lower in melting point: 199 to 201 °C for the first, 178 to 180 °C for the second.

First: Cc1cc(SCc2cccc3c2cnn3-c2ccc(C(F)(F)F)cc2)ccc1CCC(=O)O [Example 32, 3-{2-Methyl-4-[1-(4-trifluoromethylphenyl)-1H-indazol-4-ylmethylsulfanyl]phenyl}propionic Acid]
Second: CC(C)(Oc1ccc(SCc2cccc3c2cnn3-c2ccc(C(F)(F)F)cc2)cc1)C(=O)O [Example 79, 2-Methyl-2-{4-[1-(4-trifluoromethylphenyl)-1H-indazol-4-ylmethylsulfanyl]phenoxy}propionic Acid]
The melting point of the first is lower: 113 to 115 °C for the first, 158 to 160 °C for the second.

First: Cc1cc(OCc2cccc3cn(-c4ccc(C(F)(F)F)cc4)nc23)ccc1OC(C)(C)C(=O)O [Example 37, 2-Methyl-2-{2-methyl-4-[2-(4-trifluoromethylphenyl)-2H-indazol-7-ylmethoxy]phenoxy}propionic Acid]
Second: Cc1cc(OC(C)c2cccc3nn(-c4ccc(C(F)(F)F)cc4)cc23)ccc1OC(C)(C)C(=O)O (racemic) [Example 74, (+/−)-2-Methyl-2-(2-methyl-4-{1-[2-(4-trifluoromethylphenyl)-2H-indazol-4-yl]ethoxy}phenoxy)propionic Acid]
The melting point of the first is higher: 165 to 167 °C for the first, 130 to 132 °C for the second.

Compared with CC(C)(Oc1ccc(SCc2cccc3cnn(-c4ccc(C(F)(F)F)cc4)c23)cc1)C(=O)O [Example 99, 2-Methyl-2-{4-[1-(4-trifluoromethylphenyl)-1H-indazol-7-ylmethylsulfanyl]phenoxy}propionic Acid], Cc1cc(SCc2cccc3cnn(-c4ccc(C(F)(F)F)cc4)c23)ccc1OC(C)(C)C(=O)O [Example 98, 2-Methyl-2-{2-methyl-4-[1-(4-trifluoromethylphenyl)-1H-indazol-7-ylmethylsulfanyl]phenoxy}propionic Acid] is higher in melting point: 125 to 128 °C for the first, 154 to 158 °C for the second.

First: O=C(O)Cc1csc2cc(SCc3ccc4cn(-c5ccc(C(F)(F)F)cc5)nc4c3)ccc12 [Example 23, 6-[2-(4-Trifluoromethylphenyl)-2H-indazol-6-ylmethylsulfanyl]benzo[b]thiophen-3ylacetic Acid]
Second: Cc1cc(SCc2ccc3cn(-c4ccc(C(F)(F)F)cc4)nc3c2)ccc1OCC(=O)O [Example 19, 2-Methyl-4-[2-(4-trifluoromethylphenyl)-2H-indazol-6-ylmethylsulfanyl]phenoxyacetic Acid]
The melting point of the first is higher: 194 to 196 °C for the first, 142 to 144 °C for the second.

Compared with Cc1cc(SC(C)c2cccc3c2cnn3-c2ccc(C(F)(F)F)cc2)ccc1OC(C)(C)C(=O)O (racemic) [Example 83, (+/−)-2-Methyl-2-(2-methyl-4-{1-[1-(4-trifluoromethylphenyl)-1H-indazol-4-yl]ethylsulfanyl}phenoxy)propionic Acid], Cc1cc(SC(c2ccccc2)c2cccc3c2cnn3-c2ccc(C(F)(F)F)cc2)ccc1OC(C)(C)C(=O)O (racemic) [Example 92, (+/−)-2-Methyl-2-(2-methyl-4-{phenyl-[1-(4-trifluoromethylphenyl)-1H-indazol-4-yl]methylsulfanyl}phenoxy)propionic Acid] is higher in melting point: 85 to 87 °C for the first, 181 to 186 °C for the second.

Compared with CC(Sc1ccc2c(CC(=O)O)csc2c1)c1cccc2cn(-c3ccc(C(F)(F)F)cc3)nc12 (racemic) [Example 11, (+/−)-6-{1-[2-(4-Trifluoromethylphenyl)-2H-indazol-7-yl]ethylsulfanyl}benzo[b]thiophen-3-ylacetic Acid], CC(C)(Sc1ccc2c(CC(=O)O)csc2c1)c1cccc2cn(-c3ccc(C(F)(F)F)cc3)nc12 [Example 17, 6-{1-Methyl-1-[2-(4-trifluoromethylphenyl)-2H-indazol-7-yl]ethylsulfanyl}benzo[b]thiophen-3-ylacetic Acid] is higher in melting point: 76 to 78 °C for the first, 120 to 122 °C for the second.

First: CC(Oc1ccc(OC(C)(C)C(=O)O)cc1)c1ccc2nn(-c3ccc(C(F)(F)F)cc3)cc2c1 (racemic) [Example 70, (+/−)-2-Methyl-2-(4-{1-[2-(4-trifluoromethylphenyl)-2H-indazol-5-yl]ethoxy}phenoxy)propionic Acid]
Second: CC(Sc1ccc(OC(C)(C)C(=O)O)cc1)c1cccc2nn(-c3ccc(C(F)(F)F)cc3)cc12 (racemic) [Example 73, (+/−)-2-Methyl-2-(4-{1-[2-(4-trifluoromethylphenyl)-2H-indazol-4-yl]ethylsulfanyl}phenoxy)propionic Acid]
The melting point of the first is higher: 152 to 154 °C for the first, 148 to 150 °C for the second.

Compared with O=C(O)Cc1cccc(SCc2cccc3cn(-c4ccc(C(F)(F)F)cc4)nc23)c1 [Example 4, 3-[2-(4-Trifluoromethylphenyl)-2H-indazol-7-ylmethylsulfanyl]phenylacetic Acid], CC(C)(Oc1ccc(SCCc2cccc3cn(-c4ccc(C(F)(F)F)cc4)nc23)cc1)C(=O)O [Example 50, 2-Methyl-2-(4-{2-[2-(4-trifluoromethylphenyl)-2H-indazol-7-yl]ethylsulfanyl}phenoxy)propionic Acid] is lower in melting point: 147 to 149 °C for the first, 112 to 114 °C for the second.

Compared with CC(C)(Sc1ccc(OCc2ccc3nn(-c4ccc(C(F)(F)F)cc4)cc3c2)cc1)C(=O)O [Example 62, 2-Methyl-2-{4-[2-(4-trifluoromethylphenyl)-2H-indazol-5-ylmethoxy]phenylsulfanyl}propionic Acid], Cc1cc(SC(C)(C)c2cccc3cn(-c4ccc(C(F)(F)F)cc4)nc23)ccc1OCC(=O)O [Example 14, 2-Methyl-4-{1-methyl-1-[2-(4-trifluoromethylphenyl)-2H-indazol-7-yl]ethylsulfanyl}phenoxyacetic Acid] is lower in melting point: 192 to 194 °C for the first, 118 to 120 °C for the second.

First: Cc1cc(SCc2cccc3nn(-c4ccc(C(F)(F)F)cc4)cc23)ccc1OC(C)(C)C(=O)O [Example 71, 2-Methyl-2-{2-methyl-4-[2-(4-trifluoromethylphenyl)-2H-indazol-4-ylmethylsulfanyl]phenoxy}propionic Acid]
Second: Cc1cc(SC(C)c2cccc3cn(-c4ccc(C(F)(F)F)cc4)nc23)ccc1OCC(=O)O (racemic) [Example 8, (+/−)-2-Methyl-4-{1-[2-(4-trifluoromethylphenyl)-2H-indazol-7-yl]ethylsulfanyl}phenoxyacetic Acid]
The melting point of the first is higher: 125 to 127 °C for the first, 62 to 64 °C for the second.
